The values below come from ChEMBL document CHEMBL1130755, “Synthesis of a new class of camptothecin derivatives, the long-chain fatty acid esters of 10-hydroxycamptothecin, as a potent prodrug candidate, and their in vitro metabolic conversion by carboxylesterases” (Bioorg Med Chem Lett, 1998).

One data set has as its target T1, Liver carboxylesterase 1 (Homo sapiens, UniProt P23141).
T1 sequence (P23141 whole entry): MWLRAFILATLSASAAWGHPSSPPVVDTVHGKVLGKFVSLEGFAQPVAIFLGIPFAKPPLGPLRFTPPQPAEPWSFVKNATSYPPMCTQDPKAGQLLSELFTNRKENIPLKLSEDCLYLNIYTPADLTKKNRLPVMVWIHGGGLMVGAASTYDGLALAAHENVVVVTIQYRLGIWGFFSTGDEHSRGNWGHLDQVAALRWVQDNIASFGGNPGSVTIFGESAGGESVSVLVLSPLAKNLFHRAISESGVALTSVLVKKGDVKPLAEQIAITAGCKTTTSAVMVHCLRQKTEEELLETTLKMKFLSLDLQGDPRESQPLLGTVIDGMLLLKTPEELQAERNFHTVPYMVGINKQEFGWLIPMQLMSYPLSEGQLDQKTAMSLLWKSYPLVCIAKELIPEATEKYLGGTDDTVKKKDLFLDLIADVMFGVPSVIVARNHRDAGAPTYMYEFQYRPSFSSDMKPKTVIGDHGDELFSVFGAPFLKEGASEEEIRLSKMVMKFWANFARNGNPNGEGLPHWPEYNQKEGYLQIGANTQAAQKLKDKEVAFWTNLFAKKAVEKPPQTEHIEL
The data set is described as follows: Specific activity (hydrolysis) by purified carboxylesterase isozyme HU1 against microsomes in human liver.

For a further data set, the target named is T2, Carboxylesterase 1E (Rattus norvegicus, UniProt Q63108).
T2 sequence (Q63108 whole entry): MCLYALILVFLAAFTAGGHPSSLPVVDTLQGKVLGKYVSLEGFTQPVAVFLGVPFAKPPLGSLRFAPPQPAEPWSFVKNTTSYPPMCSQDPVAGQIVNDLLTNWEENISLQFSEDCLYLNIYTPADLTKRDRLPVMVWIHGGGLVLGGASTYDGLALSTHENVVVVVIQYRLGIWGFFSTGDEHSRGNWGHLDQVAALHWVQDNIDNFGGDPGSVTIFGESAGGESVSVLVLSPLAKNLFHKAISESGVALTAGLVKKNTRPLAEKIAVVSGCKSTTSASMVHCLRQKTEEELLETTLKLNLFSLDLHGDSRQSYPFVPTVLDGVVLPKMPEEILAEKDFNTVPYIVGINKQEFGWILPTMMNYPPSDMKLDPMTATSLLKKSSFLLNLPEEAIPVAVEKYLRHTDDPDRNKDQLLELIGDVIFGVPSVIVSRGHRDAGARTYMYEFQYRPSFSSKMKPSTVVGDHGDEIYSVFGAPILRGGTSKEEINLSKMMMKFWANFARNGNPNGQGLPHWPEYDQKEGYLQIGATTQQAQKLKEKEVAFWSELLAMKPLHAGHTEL
The data set is described as follows: Specific activity (hydrolysis) by purified carboxylesterase isozyme RH1 against microsomes in rat liver.

Data set [1] deals with Liver carboxylesterase 1 (Sus scrofa). The data set is described as follows: Specific activity (hydrolysis) by purified carboxylesterase isozyme P1 against microsomes in pig liver.

Consider `CCCCCCCCCCCCCCCCCCCC(=O)Oc1ccc2nc3c(cc2c1)Cn1c-3cc2c(c1=O)COC(=O)[C@]2(O)CC`, for which the Activity on Liver carboxylesterase 1 turned out to be 1.07 nmol/min/mg; at Carboxylesterase 1E, 0.183 nmol/min/mg; in data set [1], 0.854 nM/mg/min.

With `CCCCCCCCCC(=O)Oc1ccc2nc3c(cc2c1)Cn1c-3cc2c(c1=O)COC(=O)[C@]2(O)CC`, the Activity at Liver carboxylesterase 1 came to 27.9 nmol/min/mg; at Carboxylesterase 1E, 17.4 nmol/min/mg; in data set [1] it was 37.4 nM/mg/min.

On to `CCCCCCCCCCCCCCCCCC(=O)Oc1ccc2nc3c(cc2c1)Cn1c-3cc2c(c1=O)COC(=O)[C@]2(O)CC`, for which the Activity on Liver carboxylesterase 1 came out at 1.27 nmol/min/mg; at Carboxylesterase 1E, 0.698 nmol/min/mg; in data set [1], 3.02 nM/mg/min.

`CCCCCCCCCCCC(=O)Oc1ccc2nc3c(cc2c1)Cn1c-3cc2c(c1=O)COC(=O)[C@]2(O)CC`: the Activity turned out to be 15.3 nmol/min/mg at Liver carboxylesterase 1, 19.1 nmol/min/mg at Carboxylesterase 1E and 42.1 nM/mg/min in data set [1].

With `CCc1c2c(nc3ccc(OC(=O)N4CCC(N5CCCCC5)CC4)cc13)-c1cc3c(c(=O)n1C2)COC(=O)[C@]3(O)CC` [IRINOTECAN], at Carboxylesterase 1E, the Activity was determined as 0.259 nmol/min/mg.

Consider `CCCCCCCCCCCCCCCC(=O)Oc1ccc2nc3c(cc2c1)Cn1c-3cc2c(c1=O)COC(=O)[C@]2(O)CC`, for which the values for the Activity (at Liver carboxylesterase 1; on Carboxylesterase 1E; in data set [1]) were 1.58 nmol/min/mg, 2.33 nmol/min/mg and 9.13 nM/mg/min, respectively.
